SMILES strings stand for the structures. Some results are limits rather than exact numbers.

Data on 13 compounds can be found in ChEMBL document CHEMBL5291721, “A preclinical secondary pharmacology resource illuminates target-adverse drug reaction associations of marketed drugs” (Nat Commun, 2023).

Assay [1] has as its target T1, Muscarinic acetylcholine receptor M5 (Homo sapiens, UniProt P08912).
T1 sequence (P08912 whole entry): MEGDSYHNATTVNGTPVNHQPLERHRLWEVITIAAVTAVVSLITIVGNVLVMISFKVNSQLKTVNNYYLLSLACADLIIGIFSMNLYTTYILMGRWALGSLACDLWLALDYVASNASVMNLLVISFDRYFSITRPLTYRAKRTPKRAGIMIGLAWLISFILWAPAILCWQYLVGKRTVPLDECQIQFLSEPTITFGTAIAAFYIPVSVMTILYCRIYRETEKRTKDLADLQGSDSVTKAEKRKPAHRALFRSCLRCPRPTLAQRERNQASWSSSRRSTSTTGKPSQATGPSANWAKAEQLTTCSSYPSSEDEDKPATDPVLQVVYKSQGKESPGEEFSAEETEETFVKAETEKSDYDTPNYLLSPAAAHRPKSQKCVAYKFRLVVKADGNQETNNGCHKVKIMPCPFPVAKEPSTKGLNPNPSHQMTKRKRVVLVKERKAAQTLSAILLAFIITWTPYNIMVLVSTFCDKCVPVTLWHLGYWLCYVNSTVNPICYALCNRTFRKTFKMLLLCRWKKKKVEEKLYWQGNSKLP

For assay [2], the target named is Cannabinoid receptor 1 (Homo sapiens, UniProt P21554). In kind it is functional.
Cannabinoid receptor 1, sequence (P21554 whole entry): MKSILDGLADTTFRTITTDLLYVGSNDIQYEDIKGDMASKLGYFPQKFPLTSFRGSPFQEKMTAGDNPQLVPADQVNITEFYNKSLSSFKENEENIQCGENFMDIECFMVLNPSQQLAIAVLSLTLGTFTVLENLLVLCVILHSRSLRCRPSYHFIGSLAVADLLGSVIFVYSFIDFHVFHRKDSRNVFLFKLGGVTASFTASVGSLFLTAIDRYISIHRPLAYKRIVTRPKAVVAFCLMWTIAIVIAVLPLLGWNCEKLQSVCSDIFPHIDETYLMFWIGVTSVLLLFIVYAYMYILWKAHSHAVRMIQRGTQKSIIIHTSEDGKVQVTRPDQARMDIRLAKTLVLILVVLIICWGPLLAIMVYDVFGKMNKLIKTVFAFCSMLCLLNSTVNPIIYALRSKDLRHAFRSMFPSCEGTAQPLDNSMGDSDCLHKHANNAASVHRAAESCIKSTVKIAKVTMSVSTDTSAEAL
Assay [3] concerns the target Histamine H1 receptor (Homo sapiens, UniProt P35367). In kind it is functional, cell-based.
Assay [4] concerns the target T2, Alpha-2A adrenergic receptor (Homo sapiens, UniProt P08913).
T2 sequence (P08913 whole entry): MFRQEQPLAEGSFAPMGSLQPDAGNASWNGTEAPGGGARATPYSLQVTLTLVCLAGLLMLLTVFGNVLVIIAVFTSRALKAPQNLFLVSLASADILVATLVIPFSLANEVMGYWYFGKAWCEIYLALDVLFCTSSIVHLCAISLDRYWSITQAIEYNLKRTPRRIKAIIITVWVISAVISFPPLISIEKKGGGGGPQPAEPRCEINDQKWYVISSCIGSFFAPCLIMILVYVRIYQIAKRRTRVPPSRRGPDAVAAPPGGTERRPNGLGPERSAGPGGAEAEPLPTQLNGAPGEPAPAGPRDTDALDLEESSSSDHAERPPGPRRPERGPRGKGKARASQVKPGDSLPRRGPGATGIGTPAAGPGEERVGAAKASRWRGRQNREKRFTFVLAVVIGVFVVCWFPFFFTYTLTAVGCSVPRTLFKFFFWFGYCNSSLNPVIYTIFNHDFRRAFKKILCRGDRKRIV

Assay [5] has as its target T3, 5-hydroxytryptamine receptor 1A (Homo sapiens, UniProt P08908).
T3 sequence (P08908 whole entry): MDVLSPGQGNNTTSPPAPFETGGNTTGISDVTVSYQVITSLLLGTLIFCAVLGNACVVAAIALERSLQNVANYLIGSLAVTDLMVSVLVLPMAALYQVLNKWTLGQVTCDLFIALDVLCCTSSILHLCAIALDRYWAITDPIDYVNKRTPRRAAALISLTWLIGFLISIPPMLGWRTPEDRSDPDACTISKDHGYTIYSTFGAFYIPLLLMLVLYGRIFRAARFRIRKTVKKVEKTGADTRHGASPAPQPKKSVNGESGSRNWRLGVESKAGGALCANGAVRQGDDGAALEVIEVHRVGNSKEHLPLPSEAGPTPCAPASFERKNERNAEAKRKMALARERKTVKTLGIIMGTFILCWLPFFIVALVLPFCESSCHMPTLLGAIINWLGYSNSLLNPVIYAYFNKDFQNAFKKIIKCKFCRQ

Assay [6] has as its target 5-hydroxytryptamine receptor 2B (Homo sapiens, UniProt P41595).
Assay [7] deals with T4, Nuclear receptor subfamily 1 group I member 3 (Homo sapiens, UniProt Q14994).
T4 sequence (Q14994 whole entry): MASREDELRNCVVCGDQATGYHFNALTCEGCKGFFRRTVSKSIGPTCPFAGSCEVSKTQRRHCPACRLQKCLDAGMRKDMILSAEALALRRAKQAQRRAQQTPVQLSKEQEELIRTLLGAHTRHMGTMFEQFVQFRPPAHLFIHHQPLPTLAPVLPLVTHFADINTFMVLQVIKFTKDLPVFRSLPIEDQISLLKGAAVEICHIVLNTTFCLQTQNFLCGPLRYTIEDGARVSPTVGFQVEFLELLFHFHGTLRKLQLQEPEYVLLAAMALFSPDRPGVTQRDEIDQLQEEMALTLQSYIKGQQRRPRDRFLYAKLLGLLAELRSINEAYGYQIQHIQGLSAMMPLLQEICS
In kind it is functional.

In assay [8] the target is T5, Peroxisome proliferator-activated receptor alpha (Homo sapiens, UniProt Q07869).
T5 sequence (Q07869 whole entry): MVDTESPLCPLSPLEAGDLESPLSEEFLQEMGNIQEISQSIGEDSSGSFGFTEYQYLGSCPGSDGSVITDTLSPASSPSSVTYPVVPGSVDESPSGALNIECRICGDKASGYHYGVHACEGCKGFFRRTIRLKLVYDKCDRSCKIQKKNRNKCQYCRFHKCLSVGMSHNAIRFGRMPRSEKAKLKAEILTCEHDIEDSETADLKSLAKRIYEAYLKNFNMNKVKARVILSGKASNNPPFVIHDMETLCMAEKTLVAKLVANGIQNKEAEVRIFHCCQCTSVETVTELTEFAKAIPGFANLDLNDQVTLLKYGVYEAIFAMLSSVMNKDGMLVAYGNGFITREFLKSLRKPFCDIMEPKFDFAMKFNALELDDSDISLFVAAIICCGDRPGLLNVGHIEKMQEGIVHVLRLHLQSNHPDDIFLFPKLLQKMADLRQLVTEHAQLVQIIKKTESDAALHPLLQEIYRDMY
In kind it is functional.
Further: assay procedure not described here.

Histamine H1 receptor, sequence (P35367 whole entry): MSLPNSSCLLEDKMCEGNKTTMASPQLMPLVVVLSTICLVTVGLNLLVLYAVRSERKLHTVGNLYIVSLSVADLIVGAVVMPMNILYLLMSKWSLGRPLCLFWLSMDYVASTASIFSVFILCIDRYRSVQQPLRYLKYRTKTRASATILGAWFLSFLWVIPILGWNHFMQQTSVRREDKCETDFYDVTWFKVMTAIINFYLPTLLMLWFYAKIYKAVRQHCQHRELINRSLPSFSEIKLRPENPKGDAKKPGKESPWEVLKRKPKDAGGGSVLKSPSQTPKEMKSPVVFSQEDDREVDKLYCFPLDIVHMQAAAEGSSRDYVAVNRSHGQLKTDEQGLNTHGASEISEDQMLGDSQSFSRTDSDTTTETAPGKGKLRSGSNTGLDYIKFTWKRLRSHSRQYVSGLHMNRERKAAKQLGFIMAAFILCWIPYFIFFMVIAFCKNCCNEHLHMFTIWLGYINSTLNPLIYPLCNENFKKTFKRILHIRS
5-hydroxytryptamine receptor 2B, sequence (P41595 whole entry): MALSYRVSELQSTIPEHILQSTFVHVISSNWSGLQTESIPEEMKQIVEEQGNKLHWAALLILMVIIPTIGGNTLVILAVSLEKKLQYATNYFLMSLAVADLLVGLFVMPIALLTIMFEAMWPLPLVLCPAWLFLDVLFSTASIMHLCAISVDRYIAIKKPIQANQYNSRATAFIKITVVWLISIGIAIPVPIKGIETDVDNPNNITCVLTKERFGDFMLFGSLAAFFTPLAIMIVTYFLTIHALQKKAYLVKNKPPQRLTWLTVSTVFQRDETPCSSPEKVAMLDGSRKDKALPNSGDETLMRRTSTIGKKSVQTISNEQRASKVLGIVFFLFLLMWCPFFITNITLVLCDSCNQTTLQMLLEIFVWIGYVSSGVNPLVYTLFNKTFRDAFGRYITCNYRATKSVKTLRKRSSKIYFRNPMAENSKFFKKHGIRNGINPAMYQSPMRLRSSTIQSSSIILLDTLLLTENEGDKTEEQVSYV

Take `CCOC(=O)[C@H](CCc1ccccc1)N[C@@H](C)C(=O)N1Cc2ccccc2C[C@H]1C(=O)O`: the half-maximal activity concentration (AC50) in assay [1] and in assay [2] was greater than 10 µM each time.

Compound `CN(C)CCc1c[nH]c2ccc(CS(=O)(=O)N3CCCC3)cc12` [ALMOTRIPTAN] gave an AC50 in assay [3] greater than 30 µM.

`CN1CC2c3ccccc3Oc3ccc(Cl)cc3C2C1` (stereo not given) [ASENAPINE] had an AC50 in assay [4] of 0.0137 µM.

Regarding `CC(=O)Oc1ccccc1C(=O)O` [ASPIRIN], the AC50 in assay [2] was greater than 10 µM; in assay [5] it was greater than 30 µM; in assay [4] it was greater than 30 µM.

In assay [6], `CN(C)CCCC1(c2ccc(F)cc2)OCc2cc(C#N)ccc21` (stereo not given) [CITALOPRAM] registered an AC50 of 0.3 µM.

With `CC(C)/N=c1\cc2n(-c3ccc(Cl)cc3)c3ccccc3nc-2cc1Nc1ccc(Cl)cc1` [CLOFAZIMINE], the half-maximal activity concentration (AC50) in assay [7] and in assay [8] was greater than 30 µM in each case.

As to `NCC1(CC(=O)O)CCCCC1` [GABAPENTIN], the concentration at half-maximal activity (AC50) in assay [1] is greater than 10 µM; in assay [2], greater than 10 µM; in assay [5], greater than 30 µM; in assay [4], greater than 30 µM.

Regarding `OCCOCCN1CCN(C(c2ccccc2)c2ccc(Cl)cc2)CC1` (stereo not given) [HYDROXYZINE], the AC50 in assay [3] is greater than 30 µM.

As for `C#CCN(C)Cc1ccccc1` [PARGYLINE], the concentration at half-maximal activity (AC50) in assay [3] is greater than 30 µM.

As to `CC(=O)SCC(Cc1ccccc1)C(=O)NCC(=O)OCc1ccccc1` (stereo not given) [RACECADOTRIL], in assay [8], the AC50 is 29 µM.

In assay [4], `CCOc1ccccc1OCCN[C@H](C)Cc1ccc(OC)c(S(N)(=O)=O)c1` [TAMSULOSIN] yielded an AC50 of 0.79 µM.

The compound `Cc1ccc(C(C)C)c(O)c1` [THYMOL] gave an AC50 in assay [6] of 9.1 µM.

In turn, `Cc1c(C)c2c(c(C)c1O)CCC(C)(COc1ccc(CC3SC(=O)NC3=O)cc1)O2` (stereo not given) [TROGLITAZONE] gave an AC50 in assay [7] of 3.4 µM.
